Reference: patent US6355799B1, “Substituted benzene compounds, process for their preparation, and herbicidal and defoliant compositions containing them” (ISK Americas Incorporated, priority 1997, dated 2002)

Key:
Type in all cases: in vivo
[1] = test system: redroot pigweed (Amaranthus retroflexus, AMARE); assay: Pre-emerge test, greenhouse herbicide activity screening; conditions: rating scale 0-100, 14 days after application
In short: (§1)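 Herbicidal damage is scored 0 (none) to 100 (complete plant death) two weeks after a simulated field spray. Rates span 15–1000 g ai/ha, delivered in acetone at 187 l/ha. For post-emergence treatments, plants have 2–3 leaves and the spray carries 0.25% v/v non-ionic surfactant.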

[2] = test system: johnsongrass (Sorghum halepense, SORHA); assay: as above; conditions: rating scale 0-100, 14 days after application
In short: (§2)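 Sandy loam pots; pre-emerge: sown 1 d pre-spray, surface-watered after, then bottom-watered. Post-emerge: sown 8–21 d before, 2–3 leaf stage, + 0.25% v/v NIS, bottom-watered. Acetone, 187 l/ha track spray, 15–1000 g ai/ha. 0–100 injury score, day 14.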

[3] = test system: ivyleaf morningglory (Ipomoea hederacea, IPOHE); assay: as above; conditions: rating scale 0-100, 14 days after application
In short: as §2

[4] = test system: large crabgrass (Digitaria sanguinalis, DIGSA); assay: as above; conditions: rating scale 0-100, 14 days after application
In short: as §2

[5] = test system: lambsquarters (Chenopodium album, CHEAL); assay: as above; conditions: rating scale 0-100, 14 days after application
In short: as §2

[6] = test system: green foxtail (Setaria viridis, SETVI); assay: as above; conditions: rating scale 0-100, 14 days after application
In short: as §2

[7] = test system: sicklepod (Cassia obtusifolia, CASOB); assay: as above; conditions: rating scale 0-100, 14 days after application
In short: as §2

[8] = test system: barnyardgrass (Echinochloa crus-galli, ECHCG); assay: as above; conditions: rating scale 0-100, 14 days after application
In short: as §2

[9] = test system: velvetleaf (Abutilon theophrasti, ABUTH); assay: as above; conditions: rating scale 0-100, 14 days after application
In short: as §2

[10] = test system: field corn (Zea mays L., var. Dekalb 535, CORN); assay: Post-emerge test, crop safety; conditions: rating scale 0-100 (0 no damage, 100 complete death), 14 days after application
In short: as §2

[11] = test system: upland rice (Oryza sp., var. Tebonnet, RICE); assay: Post-emerge test, crop safety; conditions: rating scale 0-100 (0 no damage, 100 complete death), 14 days after application
In short: as §2

[12] = test system: common ragweed (Ambrosia artemisizfolia L., AMBEL); assay: Post-emerge test, greenhouse herbicide activity screening; conditions: rating scale 0-100 (0 no damage, 100 complete death), 14 days after application
In short: (§3)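 Visual ratings on a 0-100 scale (0 no damage, 100 all plants dead) were taken at 14 days after treatment. Rates of 15-1000 g ai/ha in acetone, 187 l/ha, were sprayed onto soil one day after planting (pre-emerge) or onto 2-3 leaf plants with 0.25% v/v surfactant (post-emerge).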

[13] = test system: johnsongrass (Sorghum halepense, SORHA); assay: as above; conditions: rating scale 0-100 (0 no damage, 100 complete death), 14 days after application
In short: as §3

[14] = test system: ivyleaf morningglory (Ipomoea hederacea, IPOHE); assay: as above; conditions: rating scale 0-100 (0 no damage, 100 complete death), 14 days after application
In short: as §3

[15] = test system: large crabgrass (Digitaria sanguinalis, DIGSA); assay: as above; conditions: rating scale 0-100 (0 no damage, 100 complete death), 14 days after application
In short: as §3

[16] = test system: lambsquarters (Chenopodium album, CHEAL); assay: as above; conditions: rating scale 0-100 (0 no damage, 100 complete death), 14 days after application
In short: as §3

[17] = test system: redroot pigweed (Amaranthus retroflexus, AMARE); assay: as above; conditions: rating scale 0-100 (0 no damage, 100 complete death), 14 days after application
In short: as §3

[18] = test system: green foxtail (Setaria viridis, SETVI); assay: as above; conditions: rating scale 0-100 (0 no damage, 100 complete death), 14 days after application
In short: as §3

[19] = test system: sicklepod (Cassia obtusifolia, CASOB); assay: as above; conditions: rating scale 0-100 (0 no damage, 100 complete death), 14 days after application
In short: as §3

[20] = test system: barnyardgrass (Echinochloa crus-galli, ECHCG); assay: as above; conditions: rating scale 0-100 (0 no damage, 100 complete death), 14 days after application
In short: as §3

[21] = test system: velvetleaf (Abutilon theophrasti, ABUTH); assay: as above; conditions: rating scale 0-100 (0 no damage, 100 complete death), 14 days after application
In short: as §3

[22] = test system: field corn (Zea mays L., var. Dekalb 535, CORN); assay: Pre-emerge test, crop safety; conditions: rating scale 0-100, 14 days after application
In short: as §1

[23] = test system: upland rice (Oryza sp., var. Tebonnet, RICE); assay: Pre-emerge test, crop safety; conditions: rating scale 0-100, 14 days after application
In short: as §1

CCCOC(=O)C(Cl)Cc1c(OC)c(Cl)cc(F)c1-n1c(=O)cc(C(F)(F)F)n(C)c1=O (single isomer, unassigned) [14-6]
Pre-emerge herbicidal activity, phytotoxicity rating AMARE ([1]; 63 g ai/ha): 100 | Pre-emerge herbicidal activity, phytotoxicity rating AMARE ([1]; 250 g ai/ha): 100 | Pre-emerge herbicidal activity, phytotoxicity rating SORHA ([2]; 63 g ai/ha): 0 | Pre-emerge herbicidal activity, phytotoxicity rating SORHA ([2]; 250 g ai/ha): 30 | Pre-emerge herbicidal activity, phytotoxicity rating IPOHE ([3]; 63 g ai/ha): 10 | Pre-emerge herbicidal activity, phytotoxicity rating IPOHE ([3]; 250 g ai/ha): 20 | Pre-emerge herbicidal activity, phytotoxicity rating DIGSA ([4]; 63 g ai/ha): 90 | Pre-emerge herbicidal activity, phytotoxicity rating DIGSA ([4]; 250 g ai/ha): 100 | Pre-emerge herbicidal activity, phytotoxicity rating CHEAL ([5]; 63 g ai/ha): 20 | Pre-emerge herbicidal activity, phytotoxicity rating CHEAL ([5]; 250 g ai/ha): 100 | Pre-emerge herbicidal activity, phytotoxicity rating SETVI ([6]; 63 g ai/ha): 10 | Pre-emerge herbicidal activity, phytotoxicity rating SETVI ([6]; 250 g ai/ha): 100 | Pre-emerge herbicidal activity, phytotoxicity rating CASOB ([7]; 63 g ai/ha): 30 | Pre-emerge herbicidal activity, phytotoxicity rating CASOB ([7]; 250 g ai/ha): 30 | Pre-emerge herbicidal activity, phytotoxicity rating ECHCG ([8]; 63 g ai/ha): 0 | Pre-emerge herbicidal activity, phytotoxicity rating ECHCG ([8]; 250 g ai/ha): 70 | Pre-emerge herbicidal activity, phytotoxicity rating ABUTH ([9]; 63 g ai/ha): 30 | Pre-emerge herbicidal activity, phytotoxicity rating ABUTH ([9]; 250 g ai/ha): 100 | Post-emerge phytotoxicity rating CORN (crop damage) ([10]; Rate 63 g ai/ha): 50 | Post-emerge phytotoxicity rating CORN (crop damage) ([10]; Rate 250 g ai/ha): 60 | Post-emerge phytotoxicity rating RICE (crop damage) ([11]; Rate 63 g ai/ha): 0 | Post-emerge phytotoxicity rating RICE (crop damage) ([11]; Rate 250 g ai/ha): 35 | Post-emerge Herbicidal Activity, phytotoxicity rating AMBEL ([12]; Rate 63 g ai/ha): 40 | Post-emerge Herbicidal Activity, phytotoxicity rating AMBEL ([12]; Rate 250 g ai/ha): 80 | Post-emerge Herbicidal Activity, phytotoxicity rating SORHA ([13]; Rate 63 g ai/ha): 50 | Post-emerge Herbicidal Activity, phytotoxicity rating SORHA ([13]; Rate 250 g ai/ha): 65 | Post-emerge Herbicidal Activity, phytotoxicity rating IPOHE ([14]; Rate 63 g ai/ha): 70 | Post-emerge Herbicidal Activity, phytotoxicity rating IPOHE ([14]; Rate 250 g ai/ha): 100 | Post-emerge Herbicidal Activity, phytotoxicity rating DIGSA ([15]; Rate 63 g ai/ha): 50 | Post-emerge Herbicidal Activity, phytotoxicity rating DIGSA ([15]; Rate 250 g ai/ha): 75 | Post-emerge Herbicidal Activity, phytotoxicity rating CHEAL ([16]; Rate 63 g ai/ha): 80 | Post-emerge Herbicidal Activity, phytotoxicity rating CHEAL ([16]; Rate 250 g ai/ha): 100 | Post-emerge Herbicidal Activity, phytotoxicity rating AMARE ([17]; Rate 63 g ai/ha): 95 | Post-emerge Herbicidal Activity, phytotoxicity rating AMARE ([17]; Rate 250 g ai/ha): 100 | Post-emerge Herbicidal Activity, phytotoxicity rating SETVI ([18]; Rate 63 g ai/ha): 30 | Post-emerge Herbicidal Activity, phytotoxicity rating SETVI ([18]; Rate 250 g ai/ha): 80 | Post-emerge Herbicidal Activity, phytotoxicity rating CASOB ([19]; Rate 63 g ai/ha): 50 | Post-emerge Herbicidal Activity, phytotoxicity rating CASOB ([19]; Rate 250 g ai/ha): 100 | Post-emerge Herbicidal Activity, phytotoxicity rating ECHCG ([20]; Rate 63 g ai/ha): 99 | Post-emerge Herbicidal Activity, phytotoxicity rating ECHCG ([20]; Rate 250 g ai/ha): 100 | Post-emerge Herbicidal Activity, phytotoxicity rating ABUTH ([21]; Rate 63 g ai/ha): 90 | Post-emerge Herbicidal Activity, phytotoxicity rating ABUTH ([21]; Rate 250 g ai/ha): 100 | Pre-emerge phytotoxicity rating, crop damage CORN ([22]; 63 g ai/ha): 0 | Pre-emerge phytotoxicity rating, crop damage CORN ([22]; 250 g ai/ha): 5 | Pre-emerge phytotoxicity rating, crop damage RICE ([23]; 63 g ai/ha): 15 | Pre-emerge phytotoxicity rating, crop damage RICE ([23]; 250 g ai/ha): 50
